Data reported in ChEMBL document CHEMBL1201862, “PubChem BioAssay data set” (2004).
The source made the active and inactive calls.

Tests used:
Vero = assay: cells; assay type: functional; conditions: Chlorocebus sabaeus
Steroidogenic factor 1 = Steroidogenic factor 1 (Homo sapiens, UniProt Q13285); assay: Counterscreen for inverse agonists of the liver receptor homolog-1 (LRH-1; NR5A2): Luminescence-based cell-based high throughput dose response assay to identify inverse agonists of the Steroidogenic Factor 1 Nuclear Receptor (SF1; NR5A1).; assay type: functional
Chain of Steroidogenic factor 1 (Q13285 whole entry): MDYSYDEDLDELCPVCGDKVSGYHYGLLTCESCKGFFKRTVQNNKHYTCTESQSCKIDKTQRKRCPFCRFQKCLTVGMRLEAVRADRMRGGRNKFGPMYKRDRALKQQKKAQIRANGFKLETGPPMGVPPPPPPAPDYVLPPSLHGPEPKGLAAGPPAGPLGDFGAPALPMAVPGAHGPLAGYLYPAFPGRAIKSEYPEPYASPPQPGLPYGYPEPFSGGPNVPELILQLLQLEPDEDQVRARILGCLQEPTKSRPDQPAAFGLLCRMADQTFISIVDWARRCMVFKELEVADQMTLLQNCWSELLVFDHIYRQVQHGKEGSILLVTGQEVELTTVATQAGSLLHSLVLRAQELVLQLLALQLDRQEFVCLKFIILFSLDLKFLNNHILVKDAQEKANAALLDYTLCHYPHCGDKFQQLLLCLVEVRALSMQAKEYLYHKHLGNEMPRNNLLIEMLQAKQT

[1] = StAR promoter reporter inhibition counter-screen, dose response, counter-screen for LRH-1 inverse agonist project, cell-based, luminescence, luciferase reporter (AID 651969); assay type: functional
[2] = target: Nuclear receptor subfamily 5 group A member 2 (Homo sapiens, UniProt O00482); assay type: functional, cell-based;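 also: HEK293T cells transfected with LRH-1 and a StAR promoter luciferase reporter; potency for inhibitors that lower LRH-1 driven reporter light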
[3] = A Cell Based Secondary Assay To Explore Cytotoxicity of Compounds that Sensitize Mycobacterium Tuberculosis to Beta-Lactam Antibiotics.; assay type: functional
[4] = target: Tyrosine-protein phosphatase non-receptor type 22 (Homo sapiens, UniProt Q9Y2R2); assay: PTPN22 phosphatase inhibition, dose response, selectivity assay for STEP inhibitor project, biochemical (AID 624241); assay type: functional
Chain of Tyrosine-protein phosphatase non-receptor type 22 (Q9Y2R2 whole entry): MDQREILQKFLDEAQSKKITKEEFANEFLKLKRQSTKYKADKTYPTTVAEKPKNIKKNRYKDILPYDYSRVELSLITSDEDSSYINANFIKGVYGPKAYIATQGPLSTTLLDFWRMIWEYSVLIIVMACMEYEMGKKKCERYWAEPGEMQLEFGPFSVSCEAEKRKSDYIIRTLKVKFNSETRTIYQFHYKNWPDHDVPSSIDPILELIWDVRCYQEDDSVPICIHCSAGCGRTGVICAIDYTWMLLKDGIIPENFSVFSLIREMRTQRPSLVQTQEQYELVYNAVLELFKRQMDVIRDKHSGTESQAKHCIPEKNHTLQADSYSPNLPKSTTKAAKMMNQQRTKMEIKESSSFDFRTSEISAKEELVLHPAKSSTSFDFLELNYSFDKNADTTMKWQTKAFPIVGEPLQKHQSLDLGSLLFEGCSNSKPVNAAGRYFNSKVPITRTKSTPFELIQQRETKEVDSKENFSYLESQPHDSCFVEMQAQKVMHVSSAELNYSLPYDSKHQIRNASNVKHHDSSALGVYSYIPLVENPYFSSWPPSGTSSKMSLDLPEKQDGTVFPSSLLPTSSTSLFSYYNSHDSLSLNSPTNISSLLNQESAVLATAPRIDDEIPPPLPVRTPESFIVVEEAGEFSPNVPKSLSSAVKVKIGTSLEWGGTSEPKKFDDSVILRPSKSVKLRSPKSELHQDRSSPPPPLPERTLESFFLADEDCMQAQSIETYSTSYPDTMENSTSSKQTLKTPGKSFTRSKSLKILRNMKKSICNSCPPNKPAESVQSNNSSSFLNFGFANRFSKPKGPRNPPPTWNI

[5] = target: T1, Tyrosine-protein phosphatase non-receptor type 5 (Homo sapiens, UniProt P54829); assay: STEP phosphatase inhibitors, confirmation, biochemical, fluorescence intensity, uHTS hits (AID 602372); assay type: functional; conditions: read-out: IC50_Mean
T1 sequence (P54829 whole entry): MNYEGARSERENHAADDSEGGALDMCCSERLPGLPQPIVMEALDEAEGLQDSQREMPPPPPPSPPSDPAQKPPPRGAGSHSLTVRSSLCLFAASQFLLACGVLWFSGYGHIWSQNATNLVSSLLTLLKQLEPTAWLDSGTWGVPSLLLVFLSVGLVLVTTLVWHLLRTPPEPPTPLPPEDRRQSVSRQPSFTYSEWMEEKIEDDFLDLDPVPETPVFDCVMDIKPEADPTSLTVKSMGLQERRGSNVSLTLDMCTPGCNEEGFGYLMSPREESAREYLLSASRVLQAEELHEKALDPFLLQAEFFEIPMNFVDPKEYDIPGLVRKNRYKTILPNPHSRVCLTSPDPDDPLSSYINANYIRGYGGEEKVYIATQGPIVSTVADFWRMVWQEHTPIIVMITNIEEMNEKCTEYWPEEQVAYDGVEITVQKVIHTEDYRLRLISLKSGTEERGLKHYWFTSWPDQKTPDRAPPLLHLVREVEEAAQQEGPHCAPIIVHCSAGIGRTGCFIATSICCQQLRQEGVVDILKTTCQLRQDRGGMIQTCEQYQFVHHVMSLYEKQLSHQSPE

[6] = target: T2, Low molecular weight phosphotyrosine protein phosphatase (Homo sapiens, UniProt P24666); assay type: functional; conditions: read-out: IC50_Mean
T2 sequence (P24666 whole entry): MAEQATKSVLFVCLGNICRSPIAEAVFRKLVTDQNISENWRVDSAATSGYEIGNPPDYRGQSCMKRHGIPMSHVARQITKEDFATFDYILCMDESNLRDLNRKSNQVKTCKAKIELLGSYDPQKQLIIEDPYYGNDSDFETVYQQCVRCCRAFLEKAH

[7] = target: Dual specificity protein phosphatase 3 (Homo sapiens, UniProt P51452); assay: VHR phosphatase inhibition, dose response, selectivity assay for STEP inhibitor project, biochemical (AID 602374); assay type: functional; conditions: read-out: IC50_Mean
Beta-lactamase [8] = target: Beta-lactamase (Pseudomonas aeruginosa, UniProt Q79MP6);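 also: biochemical dose-response test of metallo-beta-lactamase enzyme inhibition, read out by epi-absorbance; purified recombinant IMP-1 metallo-beta-lactamase with nitrocefin as substrate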
Chain of Beta-lactamase (Pseudomonas aeruginosa, UniProt Q79MP6) (Q79MP6 whole entry): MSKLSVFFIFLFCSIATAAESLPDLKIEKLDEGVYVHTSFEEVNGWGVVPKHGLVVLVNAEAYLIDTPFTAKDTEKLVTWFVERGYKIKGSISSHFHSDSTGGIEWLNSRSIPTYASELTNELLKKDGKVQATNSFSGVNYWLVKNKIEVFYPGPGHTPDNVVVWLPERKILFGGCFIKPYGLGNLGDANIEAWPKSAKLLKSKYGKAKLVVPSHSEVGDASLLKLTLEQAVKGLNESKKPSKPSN

[9] = target: T3, Voltage-gated N-type calcium channel alpha-1B subunit/Amyloid beta A4 precursor protein-binding family A member 1 (Homo sapiens, UniProt Q00975+Q02410); assay type: protein assay
T3 sequence (Q00975 whole entry): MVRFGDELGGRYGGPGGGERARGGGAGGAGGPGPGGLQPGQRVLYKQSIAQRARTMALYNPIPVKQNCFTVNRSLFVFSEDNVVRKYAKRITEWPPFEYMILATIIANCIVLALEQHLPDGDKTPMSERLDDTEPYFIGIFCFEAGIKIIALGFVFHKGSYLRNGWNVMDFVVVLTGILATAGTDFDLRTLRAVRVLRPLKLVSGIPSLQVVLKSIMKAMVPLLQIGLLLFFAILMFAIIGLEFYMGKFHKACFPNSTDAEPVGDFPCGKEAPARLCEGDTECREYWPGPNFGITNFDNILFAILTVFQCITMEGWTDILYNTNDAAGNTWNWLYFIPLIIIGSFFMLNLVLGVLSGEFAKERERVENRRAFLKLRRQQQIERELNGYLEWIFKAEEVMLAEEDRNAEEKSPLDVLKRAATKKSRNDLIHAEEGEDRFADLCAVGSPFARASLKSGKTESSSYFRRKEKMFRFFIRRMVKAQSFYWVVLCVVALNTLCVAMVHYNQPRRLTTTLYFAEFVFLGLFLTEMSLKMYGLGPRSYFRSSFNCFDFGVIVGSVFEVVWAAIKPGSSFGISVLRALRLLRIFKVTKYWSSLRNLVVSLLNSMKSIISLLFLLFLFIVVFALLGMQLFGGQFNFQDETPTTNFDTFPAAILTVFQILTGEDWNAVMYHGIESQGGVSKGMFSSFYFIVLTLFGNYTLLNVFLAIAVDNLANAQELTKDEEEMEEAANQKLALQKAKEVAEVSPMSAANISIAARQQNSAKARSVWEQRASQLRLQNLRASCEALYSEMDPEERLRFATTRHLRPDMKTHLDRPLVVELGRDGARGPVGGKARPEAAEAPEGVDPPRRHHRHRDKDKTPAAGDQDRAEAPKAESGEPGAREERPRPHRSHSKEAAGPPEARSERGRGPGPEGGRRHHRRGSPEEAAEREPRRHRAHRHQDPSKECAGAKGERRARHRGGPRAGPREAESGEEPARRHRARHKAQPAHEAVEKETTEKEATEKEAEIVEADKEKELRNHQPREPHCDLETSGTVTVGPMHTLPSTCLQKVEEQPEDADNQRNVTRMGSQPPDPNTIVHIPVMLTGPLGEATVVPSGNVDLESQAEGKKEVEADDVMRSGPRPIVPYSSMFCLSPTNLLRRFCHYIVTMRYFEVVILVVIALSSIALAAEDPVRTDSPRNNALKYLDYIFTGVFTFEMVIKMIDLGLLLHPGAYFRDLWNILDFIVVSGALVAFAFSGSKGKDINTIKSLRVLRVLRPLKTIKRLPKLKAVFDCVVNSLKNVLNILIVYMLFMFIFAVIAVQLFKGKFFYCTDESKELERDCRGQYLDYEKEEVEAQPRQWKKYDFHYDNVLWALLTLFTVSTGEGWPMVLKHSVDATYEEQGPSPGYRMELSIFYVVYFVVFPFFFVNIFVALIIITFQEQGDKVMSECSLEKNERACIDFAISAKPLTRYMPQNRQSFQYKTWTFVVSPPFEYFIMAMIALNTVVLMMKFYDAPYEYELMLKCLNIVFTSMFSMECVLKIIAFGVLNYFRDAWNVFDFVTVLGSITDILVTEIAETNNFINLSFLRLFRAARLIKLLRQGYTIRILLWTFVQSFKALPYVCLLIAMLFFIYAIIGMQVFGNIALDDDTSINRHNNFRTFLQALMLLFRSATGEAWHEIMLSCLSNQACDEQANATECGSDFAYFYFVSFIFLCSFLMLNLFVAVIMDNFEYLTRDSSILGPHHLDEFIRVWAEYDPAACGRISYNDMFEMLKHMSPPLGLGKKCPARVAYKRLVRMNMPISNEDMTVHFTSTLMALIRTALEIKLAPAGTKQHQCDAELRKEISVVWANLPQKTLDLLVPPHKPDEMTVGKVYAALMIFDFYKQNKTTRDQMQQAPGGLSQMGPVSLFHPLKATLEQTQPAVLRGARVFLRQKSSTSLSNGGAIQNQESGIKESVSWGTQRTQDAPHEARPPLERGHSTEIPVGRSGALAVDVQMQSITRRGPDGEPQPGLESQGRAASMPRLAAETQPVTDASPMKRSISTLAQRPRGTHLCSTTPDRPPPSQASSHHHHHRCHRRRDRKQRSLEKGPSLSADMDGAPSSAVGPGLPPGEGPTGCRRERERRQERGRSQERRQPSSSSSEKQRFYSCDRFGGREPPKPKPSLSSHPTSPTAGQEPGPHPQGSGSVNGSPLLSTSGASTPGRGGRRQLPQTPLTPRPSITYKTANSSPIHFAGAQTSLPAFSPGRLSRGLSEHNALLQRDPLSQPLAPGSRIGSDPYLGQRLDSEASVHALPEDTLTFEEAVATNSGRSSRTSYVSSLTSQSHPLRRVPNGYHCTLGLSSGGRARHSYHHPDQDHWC
T3 sequence (Q02410 whole entry): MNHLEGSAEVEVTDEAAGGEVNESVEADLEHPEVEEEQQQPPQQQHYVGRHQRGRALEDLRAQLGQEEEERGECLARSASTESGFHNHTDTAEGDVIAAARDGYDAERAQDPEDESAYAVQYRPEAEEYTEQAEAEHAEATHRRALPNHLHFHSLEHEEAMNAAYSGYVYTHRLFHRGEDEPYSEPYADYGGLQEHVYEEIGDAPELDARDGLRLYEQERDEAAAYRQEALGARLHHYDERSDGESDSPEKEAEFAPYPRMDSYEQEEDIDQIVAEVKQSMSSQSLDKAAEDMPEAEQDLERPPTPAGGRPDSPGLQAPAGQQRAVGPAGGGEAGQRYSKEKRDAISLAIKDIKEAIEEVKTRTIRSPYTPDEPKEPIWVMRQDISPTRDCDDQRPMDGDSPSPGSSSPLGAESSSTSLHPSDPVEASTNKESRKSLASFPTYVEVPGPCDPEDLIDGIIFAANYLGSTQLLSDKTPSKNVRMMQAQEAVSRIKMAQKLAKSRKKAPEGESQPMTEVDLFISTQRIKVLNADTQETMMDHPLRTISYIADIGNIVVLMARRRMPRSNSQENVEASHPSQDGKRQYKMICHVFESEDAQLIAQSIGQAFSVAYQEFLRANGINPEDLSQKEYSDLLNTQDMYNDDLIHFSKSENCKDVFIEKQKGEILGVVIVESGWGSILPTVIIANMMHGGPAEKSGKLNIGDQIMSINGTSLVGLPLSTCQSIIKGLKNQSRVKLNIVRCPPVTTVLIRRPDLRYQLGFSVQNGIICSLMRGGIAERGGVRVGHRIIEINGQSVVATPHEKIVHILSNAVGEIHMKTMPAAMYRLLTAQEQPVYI

Beta-lactamase [10] = target: Beta-lactamase (Salmonella choleraesuis (strain SC-B67), UniProt Q5J463)
[11] = target: T4, Tyrosine-protein phosphatase non-receptor type 11 (Homo sapiens, UniProt Q06124); assay: SHP2 phosphatase inhibition, dose response, selectivity assay for STEP inhibitor project, biochemical (AID 602367); assay type: functional; conditions: read-out: IC50_Mean
T4 sequence (Q06124 whole entry): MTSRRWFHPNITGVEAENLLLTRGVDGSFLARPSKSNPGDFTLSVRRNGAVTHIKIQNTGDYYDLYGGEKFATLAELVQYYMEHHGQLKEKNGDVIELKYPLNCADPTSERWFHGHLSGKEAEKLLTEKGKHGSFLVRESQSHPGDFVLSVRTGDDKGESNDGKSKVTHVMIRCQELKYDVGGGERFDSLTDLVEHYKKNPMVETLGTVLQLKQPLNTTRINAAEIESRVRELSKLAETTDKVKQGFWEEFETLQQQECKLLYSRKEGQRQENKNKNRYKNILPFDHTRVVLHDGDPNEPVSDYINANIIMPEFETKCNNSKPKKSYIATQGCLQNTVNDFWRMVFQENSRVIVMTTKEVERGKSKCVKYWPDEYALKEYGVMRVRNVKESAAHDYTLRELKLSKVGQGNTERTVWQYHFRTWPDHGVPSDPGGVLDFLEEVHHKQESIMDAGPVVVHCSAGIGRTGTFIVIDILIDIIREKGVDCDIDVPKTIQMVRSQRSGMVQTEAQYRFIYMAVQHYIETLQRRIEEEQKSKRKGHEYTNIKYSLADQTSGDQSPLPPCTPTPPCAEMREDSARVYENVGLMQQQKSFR

[12] = target: T3, Voltage-gated N-type calcium channel alpha-1B subunit/Amyloid beta A4 precursor protein-binding family A member 1; assay type: protein assay; remark: listed apart in the source
Beta Lactamase = Beta Lactamase (Pseudomonas aeruginosa, UniProt Q932Y6);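 also: confirmatory high-throughput screen measuring VIM-2 metallo-beta-lactamase inhibition by epi-absorbance in dose response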
Chain of Beta Lactamase (Q932Y6 whole entry): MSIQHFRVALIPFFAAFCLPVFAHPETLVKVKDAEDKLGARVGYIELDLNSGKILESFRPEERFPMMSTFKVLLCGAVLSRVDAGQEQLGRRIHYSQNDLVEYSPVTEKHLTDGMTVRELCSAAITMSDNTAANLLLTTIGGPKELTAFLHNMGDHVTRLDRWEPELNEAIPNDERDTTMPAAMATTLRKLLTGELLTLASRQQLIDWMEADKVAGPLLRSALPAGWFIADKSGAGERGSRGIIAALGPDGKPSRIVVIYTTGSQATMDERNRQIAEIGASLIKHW

[13] = target: T2, Low molecular weight phosphotyrosine protein phosphatase; assay type: functional; conditions: read-out: IC50_Mean; remark: listed apart in the source
[14] = target: T5, Apoptotic protease-activating factor 1 (Homo sapiens, UniProt O14727); assay: SAR analysis of small molecule Activators of Apaf-1 in a Fluorescent assay.; assay type: functional; conditions: read-out: EC50_Mean;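 also: caspase-3 cleavage of fluorogenic Rh110 DEVD substrate downstream of apoptosome activation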
T5 sequence (O14727 whole entry): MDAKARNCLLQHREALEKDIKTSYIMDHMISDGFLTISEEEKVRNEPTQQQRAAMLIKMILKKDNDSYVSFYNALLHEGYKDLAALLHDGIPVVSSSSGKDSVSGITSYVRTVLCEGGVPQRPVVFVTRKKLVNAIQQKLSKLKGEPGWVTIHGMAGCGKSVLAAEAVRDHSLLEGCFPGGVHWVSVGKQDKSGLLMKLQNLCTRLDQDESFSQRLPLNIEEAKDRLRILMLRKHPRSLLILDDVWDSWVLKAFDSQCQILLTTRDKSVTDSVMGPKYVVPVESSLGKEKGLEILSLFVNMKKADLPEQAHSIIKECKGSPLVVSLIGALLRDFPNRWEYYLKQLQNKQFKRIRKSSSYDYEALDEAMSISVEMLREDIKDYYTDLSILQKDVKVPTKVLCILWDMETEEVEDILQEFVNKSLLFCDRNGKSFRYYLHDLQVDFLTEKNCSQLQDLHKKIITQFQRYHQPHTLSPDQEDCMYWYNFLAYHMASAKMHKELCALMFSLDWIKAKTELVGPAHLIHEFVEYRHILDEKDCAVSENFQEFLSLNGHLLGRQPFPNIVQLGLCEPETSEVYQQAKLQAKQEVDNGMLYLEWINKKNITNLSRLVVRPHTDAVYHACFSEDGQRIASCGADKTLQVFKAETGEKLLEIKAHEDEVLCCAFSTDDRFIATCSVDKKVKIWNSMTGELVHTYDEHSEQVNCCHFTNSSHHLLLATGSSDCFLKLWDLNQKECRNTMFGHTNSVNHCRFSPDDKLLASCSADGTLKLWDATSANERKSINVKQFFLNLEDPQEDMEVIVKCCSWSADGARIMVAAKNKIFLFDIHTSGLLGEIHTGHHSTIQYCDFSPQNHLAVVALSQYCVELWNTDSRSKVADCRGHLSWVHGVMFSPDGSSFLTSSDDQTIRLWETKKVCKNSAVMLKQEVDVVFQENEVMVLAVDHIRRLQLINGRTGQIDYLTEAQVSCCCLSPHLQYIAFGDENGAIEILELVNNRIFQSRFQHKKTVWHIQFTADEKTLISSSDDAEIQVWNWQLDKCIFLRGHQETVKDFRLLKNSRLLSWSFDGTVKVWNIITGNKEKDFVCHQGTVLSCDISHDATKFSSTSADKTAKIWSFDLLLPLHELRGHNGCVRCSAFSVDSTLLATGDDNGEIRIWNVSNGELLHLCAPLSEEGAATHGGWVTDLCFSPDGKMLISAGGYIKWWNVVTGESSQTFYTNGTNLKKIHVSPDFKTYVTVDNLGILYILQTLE

Compound: Cc1onc(NC(=O)c2ccc([N+](=O)[O-])o2)c1Br
- CC50 (Vero): 20.8 µM (active)
- IC50 (Steroidogenic factor 1): 0.369 µM (active)
- IC50 [1]: 35.9 µM (inactive)
- IC50 [2]: 1.33 µM (active)
- CC50 [3]: 8.19 µM (active)

Compound: C/C(=N\Nc1ccc(S(N)(=O)=O)cc1[N+](=O)[O-])c1cccs1
- IC50 [4]: 81.3 µM (inactive)
- IC50 [5]: 13.9 µM (active)
- IC50 [6]: 38.2 µM (inactive)
- IC50 [7]: 3.04 µM (active)
- IC50 (Beta-lactamase [8]): > 59.6 µM (inactive)
- IC50 [9]: > 50 µM (inactive)
- IC50 (Beta-lactamase [10]): > 59.6 µM (inactive)
- IC50 [11]: 2.13 µM (active)
- IC50 [12]: 1.42 µM (active)
- IC50 (Beta Lactamase): > 59.6 µM (inactive)
- IC50 [13]: > 80 µM (inactive)

Compound: CCOC(=O)C1CCc2[nH]c3ccc(OC)cc3c2C1 (configuration not stated)
- EC50 [14]: > 100 µM (inactive)
